Counter-ions that a name gives are not always drawn.
Columns and labels:
in vitro = format: cell-based; conditions: dog
Method: MDCK Cells were inoculated into wells of a 96-well plate filled with D-MEM/F12 culture medium (available from GIBCO Company) supplemented with 10% FBS (available from TISSUE CULTURE BIOLOGICALS Company). After the cultivation of the cells for 3 days in a CO2 incubator, the culture medium was removed, a culture medium, in which each candidate substance (synthesized compound) had been dissolved, was added, followed by the cultivation for one day. To each well, there was added 10 μL of Cell Count Reagent SF (available from NAKARAI TESUKU K.K.), followed by the cultivation thereof for 2 hours and the subsequent determination of the absorbance observed at a wavelength of 460 nm. The IC50 values each were calculated on the basis of these measured values.

absorption of phosphorus = assay: Evaluation of efficacy as phosphorus absorption inhibitors: serum radioactivity AUC (0-120 min) after oral 32P NaH2PO4 in rats, inhibitory rate; format: in vivo; conditions: rats of SD line, oral dose 100 mg/5 mL/kg, 32P NaH2PO4 given orally 5 min later, serum radioactivity AUC 0-120 min vs control
Method: Seven-week-old male rats of SD line (available from SANKYO Labo-Service Co., Ltd.), as test animals, were kept and acclimatized using the usual feed (Solid CRF-1 available from ORIENTAL Yeast Co., Ltd.) and they were used in the following tests after they were fasted overnight. Each candidate substance (synthesized compound) dissolved in distilled water for injection (Otsuka Pharmaceutical Co., Ltd.) was orally administered in a dose of 100 mg/5 mL/kg or 50 mg/5 mL/kg and after 5 minutes from the administration, 3 mg/3 mL/kg, 1 MBq/kg of an NaH2PO4 solution containing ^32P (available from PerkinElmer Company) was orally administered. Subsequently, the blood was collected with the elapse of time through the caudal vein of the test animal to thus obtain the serum thereof and the radioactivity of 40 μL of the serum was determined using a liquid scintillation counter. The inhibitory rate (%) for each candidate compound was calculated on the basis of the foregoing measured values according to the following equation: […]

SMILES	IC50 at 1 day (in vitro) [µg/mL]	Inhibitory Rate (%) of Phosphorus Absorption (absorption of phosphorus) [%]
NCCCC[C@H](NC(=O)[C@H](CCCCN)NC(=O)[C@@H](N)CCCCN)C(=O)NCCCN(CCCCN(CCCNC(=O)[C@H](CCCCN)NC(=O)[C@H](CCCCN)NC(=O)[C@@H](N)CCCCN)C(=O)[C@H](CCCCN)NC(=O)[C@H](CCCCN)NC(=O)[C@@H](N)CCCCN)C(=O)[C@H](CCCCN)NC(=O)[C@H](CCCCN)NC(=O)[C@@H](N)CCCCN [Example 20, SPM(Lys)12 Hydrochloride]	> 10000	60
NCCC[C@H](NC(=O)[C@H](CCCN)NC(=O)[C@@H](N)CCCN)C(=O)NCCCN(CCCCN(CCCNC(=O)[C@H](CCCN)NC(=O)[C@H](CCCN)NC(=O)[C@@H](N)CCCN)C(=O)[C@H](CCCN)NC(=O)[C@H](CCCN)NC(=O)[C@@H](N)CCCN)C(=O)[C@H](CCCN)NC(=O)[C@H](CCCN)NC(=O)[C@@H](N)CCCN [Example 28, SPM(Orn)12 Hydrochloride]	> 10000	66
NCCCC[C@H](NC(=O)[C@@H](N)CCCCN)C(=O)NCCCC[C@H](N)C(=O)NCCCN(CCCCN(CCCNC(=O)[C@@H](N)CCCCNC(=O)[C@H](CCCCN)NC(=O)[C@@H](N)CCCCN)C(=O)[C@@H](N)CCCCNC(=O)[C@H](CCCCN)NC(=O)[C@@H](N)CCCCN)C(=O)[C@@H](N)CCCCNC(=O)[C@H](CCCCN)NC(=O)[C@@H](N)CCCCN [Example 29, SPM(Lys)12 Hydrochloride]	> 10000	55

— patent publication US20100093973A1, “POLY(AMINO ACID) COMPOUND HAVING INHIBITORY ACTIVITY ON ABSORPTION OF PHOSPHORUS AND PHOSPHORUS ABSORPTION INHIBITOR” (priority 2007, published 2010)
